The values that follow come from patent publication US20080262066A1, “Azole Derivatives as Cannabinoid CB1 Receptor Antagonists” (Green Cross Corporation, priority 2007, published 2008).

Where two headings read alike, the source gives them in different places.

This assay has as its target T1, rat CB-1 receptor (Rattus norvegicus, UniProt P20272).
T1 construct: The tissue obtained from the brain of SD rats was homogenized; from tissue; host or cells: SD rat brain (membrane pellet of homogenate)
Briefly: rat CB-1 receptor binding protocol with [3H]CP-55940 on SD rat brain tissue. Particulars: [3H]CP-55940 displacement, SD rat brain homogenate; for IC50: read-out: IC50 (binding affinity for CB1 receptor).

As a reminder, the IC50 is the midpoint of a concentration-inhibition curve.

T1 sequence (P20272 whole entry): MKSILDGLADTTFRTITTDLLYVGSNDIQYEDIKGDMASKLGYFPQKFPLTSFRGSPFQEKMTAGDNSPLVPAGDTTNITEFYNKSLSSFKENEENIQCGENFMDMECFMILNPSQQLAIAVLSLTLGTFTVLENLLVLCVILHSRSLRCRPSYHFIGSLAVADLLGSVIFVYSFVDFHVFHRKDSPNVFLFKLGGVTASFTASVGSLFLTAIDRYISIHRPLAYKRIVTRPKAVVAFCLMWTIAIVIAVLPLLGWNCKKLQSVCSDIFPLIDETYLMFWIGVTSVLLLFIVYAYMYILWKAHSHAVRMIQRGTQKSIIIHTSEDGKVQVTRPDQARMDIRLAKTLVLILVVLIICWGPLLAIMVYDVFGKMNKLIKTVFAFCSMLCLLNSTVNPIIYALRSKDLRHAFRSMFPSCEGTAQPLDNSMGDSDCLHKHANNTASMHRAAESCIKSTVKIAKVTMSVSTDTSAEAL
Experimental: The tissue obtained from the brain of SD rats was homogenized with a Dounce homogenate system in TME (50 mM Tris, 3 mM MgCl2 and 1 mM EDTA, pH 7.4) at 4° C., and the homogenate was centrifuged at 48,000 g for 30 min. at 4° C. The pellet was resuspended in 5 ml of TME and the suspension was divided into aliquots and stored at −70° C. until its use in the following assay.
The tissue concentrations were determined by Bradford protein analysis, and 148 μl of brain tissue of the required concentration was added to the plate. The plate was covered and placed in a 30° C. incubator for 60 min, and then transformed on GF/B filtermat pretreated in polyethylenimine (PEI) using a cell harvester. Each filter was washed five times and dried at 60° C. for 1 hr. Then, the degree of radioactivity retained by the filter was measured using Wallac Microbeta™ (PerkinElmer Life Sciences, Inc., Massachusetts, U.S.A.) and the activity of the compound for inhibiting CB1 receptor was determined therefrom.

Turning to `Cc1c(C(=O)NC(=O)Nc2ccccc2)nn(-c2ccc(Cl)cc2Cl)c1-c1ccc(Cl)cc1` [Example 21, 5-(4-Chlorophenyl)-1-(2,4-dichlorophenyl)-4-methyl-N-(phenylcarbamoyl)-1H-pyrazole-3-carboxamide], the IC50 is above 10000 nM.

`Cc1c(C(=O)NC(=O)NC(C)C)nn(-c2ccc(Cl)cc2Cl)c1-c1ccc(Cl)cc1` [Example 19, 5-(4-Chlorophenyl)-1-(2,4-dichlorophenyl)-N-(isopropylcarbamoyl)-4-methyl-1H-pyrazole-3-carboxamide]: the 50% inhibitory concentration (IC50) (30° C., 60 min) stood at 253 nM. `Cc1c(C(=O)NC(=O)C(C)C)nn(-c2ccc(Cl)cc2Cl)c1-c1ccc(Cl)cc1` [Example 9, 5-(4-Chlorophenyl)-1-(2,4-dichlorophenyl)-N-isobutyryl-4-methyl-1H-pyrazole-3-carboxamide]: the IC50 (30° C., 60 min) stood at 161 nM.

For `CC(=O)NC(=O)c1nn(-c2ccc(Cl)cc2Cl)c(-c2ccc(Cl)cc2)c1C` [Example 6, N-Acetyl-5-(4-chlorophenyl)-1-(2,4-dichlorophenyl)-4-methyl-1H-pyrazole-3-carboxamide], the IC50 (30° C., 60 min) was 383 nM.

As for `CCCC(CCC)C(=O)NC(=O)c1nn(-c2ccc(Cl)cc2Cl)c(-c2ccc(Cl)cc2)c1C` [Example 13, 5-(4-Chlorophenyl)-1-(2,4-dichlorophenyl)-4-methyl-N-(2-propylpentanoyl)-1H-pyrazole-3-carboxamide], the IC50 (30° C., 60 min) was found to be 26.9 nM. Turning to `CCC(CC)C(=O)NC(=O)c1nn(-c2ccc(Cl)cc2Cl)c(-c2ccc(Cl)cc2)c1C` [Example 1, 5-(4-Chlorophenyl)-1-(2,4-dichlorophenyl)-N-(2-ethylbutanoyl)-4-methyl-1H-pyrazole-3-carboxamide], where the note is “30° C., 60 min”, the IC50 was determined as 24.8 nM. Still for that read-out and setting: under `Cc1c(C(=O)NC(=O)CC(C)(C)C)nn(-c2ccc(Cl)cc2Cl)c1-c1ccc(Cl)cc1` [Example 12, 5-(4-Chlorophenyl)-1-(2,4-dichlorophenyl)-N-(3,3-dimethylbutanoyl)-4-methyl-1H-pyrazole-3-carboxamide] stands 53.4 nM; under `Cc1c(C(=O)NCNC(=O)C2CCCCCC2)nn(-c2ccc(Cl)cc2Cl)c1-c1ccc(Cl)cc1` [Example 38, 5-(4-Chlorophenyl)-N-(cycloheptanecarboxamidomethyl)-1-(2,4-dichlorophenyl)-4-methyl-1H-pyrazole-3-carboxamide], 75.6 nM; under `Cc1c(C(=O)NCNC(=O)CC2CCCCC2)nn(-c2ccc(Cl)cc2Cl)c1-c1ccc(Cl)cc1` [Example 39, 5-(4-Chlorophenyl)-N-((2-cyclohexylacetamido)methyl)-1-(2,4-dichlorophenyl)-4-methyl-1H-pyrazole-3-carboxamide], 46.5 nM. Same read-out and setting: the same measure for `CCCC(=O)NC(=O)c1nn(-c2ccc(Cl)cc2Cl)c(-c2ccc(Cl)cc2)c1C` [Example 7, N-Butyryl-5-(4-chlorophenyl)-1-(2,4-dichlorophenyl)-4-methyl-1H-pyrazole-3-carboxamide]: 43.7 nM; for `Cc1c(C(=O)NC(=O)NCc2ccccc2)nn(-c2ccc(Cl)cc2Cl)c1-c1ccc(Cl)cc1` [Example 22, N-(Benzylcarbamoyl)-5-(4-chlorophenyl)-1-(2,4-dichlorophenyl)-4-methyl-1H-pyrazole-3-carboxamide]: 146 nM. As to `Cc1c(C(=O)NCNC(=O)C2CCCC(C)C2)nn(-c2ccc(Cl)cc2Cl)c1-c1ccc(Cl)cc1` (stereo not drawn) [Example 40, 5-(4-Chlorophenyl)-1-(2,4-dichlorophenyl)-4-methyl-N-((3-methylcyclohexanecarboxamido)methyl)-1H-pyrazole-3-carboxamide], the IC50 (30° C., 60 min) was determined as 102 nM. On the same count and under the same terms, the same measure for `Cc1c(C(=O)NC(=O)NC2CCCCC2)nn(-c2ccc(Cl)cc2Cl)c1-c1ccc(Cl)cc1` [Example 16, 5-(4-Chlorophenyl)-N-(cyclohexylcarbamoyl)-1-(2,4-dichlorophenyl)-4-methyl-1H-pyrazole-3-carboxamide]: 390 nM; for `CCCC(CCC)C(=O)NC(=O)c1nc(-c2ccc(Cl)cc2Cl)n(-c2ccc(Cl)cc2)c1C` [Example 31, 1-(4-Chlorophenyl)-2-(2,4-dichlorophenyl)-5-methyl-N-(2-propylpentanoyl)-1H-imidazole-4-carboxamide]: 75.4 nM; for `Cc1c(C(=O)NC(=O)C2CCCCC2)nc(-c2ccc(Cl)cc2Cl)n1-c1ccc(Cl)cc1` [Example 28, 1-(4-Chlorophenyl)-N-(cyclohexanecarbonyl)-2-(2,4-dichlorophenyl)-5-methyl-1H-imidazole-4-carboxamide]: 88 nM.

Consider `Cc1c(C(=O)NC(=O)C2CCCC2)nn(-c2ccc(Cl)cc2Cl)c1-c1ccc(Cl)cc1` [Example 4, 5-(4-Chlorophenyl)-N-(cyclopentanecarbonyl)-1-(2,4-dichlorophenyl)-4-methyl-1H-pyrazole-3-carboxamide], for which the IC50 (30° C., 60 min) was 67.2 nM. `Cc1c(C(=O)NC(=O)C2CC2)nn(-c2ccc(Cl)cc2Cl)c1-c1ccc(Cl)cc1` [Example 2, 5-(4-Chlorophenyl)-N-(cyclopropanecarbonyl)-1-(2,4-dichlorophenyl)-4-methyl-1H-pyrazole-3-carboxamide]: the IC50 (30° C., 60 min) was found to be 124 nM. On the same count and under the same terms, under `CCCCC(CC)C(=O)NC(=O)c1nn(-c2ccc(Cl)cc2Cl)c(-c2ccc(Cl)cc2)c1C` (stereo not drawn) [Example 14, 5-(4-Chlorophenyl)-1-(2,4-dichlorophenyl)-N-(2-ethylhexanoyl)-4-methyl-1H-pyrazole-3-carboxamide] stands 43.1 nM; under `Cc1c(C(=O)NC(=O)C(C)(C)C)nc(-c2ccc(Cl)cc2Cl)n1-c1ccc(Cl)cc1` [Example 29, 1-(4-Chlorophenyl)-2-(2,4-dichlorophenyl)-5-methyl-N-pivaloyl-1H-imidazole-4-carboxamide], 40 nM; under `CCCCC(CC)C(=O)NC(=O)c1nc(-c2ccc(Cl)cc2Cl)n(-c2ccc(Cl)cc2)c1C` (stereo not drawn) [Example 32, 1-(4-Chlorophenyl)-2-(2,4-dichlorophenyl)-N-(2-ethylhexanoyl)-5-methyl-1H-imidazole-4-carboxamide], 46.6 nM. Consider `CCCC(=O)NCNC(=O)c1nn(-c2ccc(Cl)cc2Cl)c(-c2ccc(Cl)cc2)c1C` [Example 36, N-(Butyramidomethyl)-5-(4-chlorophenyl)-1-(2,4-dichlorophenyl)-4-methyl-1H-pyrazole-3-carboxamide], for which the IC50 (30° C., 60 min) is 905 nM. Regarding `Cc1c(C(=O)NCNC(=O)C2CCC2)nn(-c2ccc(Cl)cc2Cl)c1-c1ccc(Cl)cc1` [Example 34, 5-(4-Chlorophenyl)-N-(cyclobutanecarboxamidomethyl)-1-(2,4-dichlorophenyl)-4-methyl-1H-pyrazole-3-carboxamide], the IC50 (30° C., 60 min) was determined as 150 nM. On the same count and under the same terms, under `Cc1c(C(=O)NC(=O)OCC(C)(C)C)nn(-c2ccc(Cl)cc2Cl)c1-c1ccc(Cl)cc1` [Example 26, Neopentyl 5-(4-chlorophenyl)-1-(2,4-dichlorophenyl)-4-methyl-1H-pyrazole-3-carbonylcarbamate] stands 363 nM. Consider `Cc1c(C(=O)NCNC(=O)CC2CCCC2)nn(-c2ccc(Cl)cc2Cl)c1-c1ccc(Cl)cc1` [Example 41, 5-(4-Chlorophenyl)-N-((2-cyclopentylacetamido)methyl)-1-(2,4-dichlorophenyl)-4-methyl-1H-pyrazole-3-carboxamide], for which the IC50 (30° C., 60 min) was 138 nM. Regarding `Cc1c(C(=O)NC(=O)NC(C)(C)C)nn(-c2ccc(Cl)cc2Cl)c1-c1ccc(Cl)cc1` [Example 20, N-(tert-butylcarbamoyl)-5-(4-chlorophenyl)-1-(2,4-dichlorophenyl)-4-methyl-1H-pyrazole-3-carboxamide], for the setting “30° C., 60 min”, the “IC50 (binding affinity for CB1 receptor)” value is “insoluble”. As for `Cc1c(C(=O)NC(=O)NCC2CCCCC2)nn(-c2ccc(Cl)cc2Cl)c1-c1ccc(Cl)cc1` [Example 18, 5-(4-Chlorophenyl)-N-(cyclohexylmethylcarbamoyl)-1-(2,4-dichlorophenyl)-4-methyl-1H-pyrazole-3-carboxamide], for the setting “30° C., 60 min”, the “IC50 (binding affinity for CB1 receptor)” value is “insoluble”. Take `Cc1c(C(=O)NC(=O)NC2CCCCCC2)nn(-c2ccc(Cl)cc2Cl)c1-c1ccc(Cl)cc1` [Example 17, 5-(4-Chlorophenyl)-N-(cycloheptylcarbamoyl)-1-(2,4-dichlorophenyl)-4-methyl-1H-pyrazole-3-carboxamide]: where the note is “30° C., 60 min”, the IC50 turned out to be 750 nM.
